The assay concerns the target N-type calcium channel (α1B (Cav2.2), β3 and α2δ subunits) (Homo sapiens, UniProt Q00975). The assay is described as follows: Functional Assay: Antagonism of N-Type Calcium Channel (FDSS calcium mobilization, KCl depolarization). Format: cell-based. The note with it: for IC50: HEK cell line, 50 mM KCl depolarization, six-point concentration-response, read-out: FDSS IC50. As to the method:
A stable cell line (HEK parent) co-expressing the α1B (Cav2.2), β3 and α2δ subunits of the N-type calcium channel subunits was used. These cells were routinely grown as monolayers in low glucose-containing Dulbecco's Modified Eagle Medium supplemented with 10% FBS, 2 mM L-glutamine, 100 I.U./mL penicillin, 100 μg/mL streptomycin, 400 μg/mL G418 and 200 μg/mL Zeocin (split ratio=1:5). Cells were maintained in 5% CO2 at 37° C. Compounds of Formula (I) were prepared as 10 mM stocks in DMSO from neat compound, if available. Otherwise, the 5 or 10 mM DMSO stock solutions provided in-house were used.
Calcium mobilization responses to KCl depolarization were evaluated by measuring the intensity of calcium-mediated fluorescent signal in the presence of BD Calcium Assay Dye (BD Biosciences, Franklin Lakes, N.J., U.S.A.), utilizing a Functional Drug Screening System (FDSS) by Hamamatsu Corporation (Bridgewater, N.J. U.S.A.).
Twenty-four hr prior to assay, cells were seeded in clear-base poly-D-lysine-coated 384-well plates (BD Biosciences) at a density of 5,000 cells per well in culture medium and grown overnight in 5% CO2 at 37° C. On the day of assay, growth media were removed, and cells were loaded with BD calcium assay dye (BD Biosciences) for 35 min at 37° C. under 5% CO2 and then for 25 min at room temp. Utilizing the FDSS, cells were exposed to representative compounds of Formula (I) at varying concentrations, and intracellular calcium was measured for 5 min prior to the addition of 50 mM KCl for an additional 3 min of measurement.
Calculations and Formulas
IC50 values for representative compounds of Formula (I) were determined from six-point concentration-response experiments and represent the concentration of said compound required to inhibit 50% of the maximal response. Maximal fluorescence intensity (FI) achieved upon addition of 50 mM KCl was exported from the FDSS software and further analyzed using GraphPad Prism 3.02 (Graph Pad Software Inc., San Diego, Calif., U.S.A.). Data were normalized to the maximum average counts from quadruplicate wells for each condition in the presence of 50 mM KCl and to the minimum average counts in the presence of buffer. Theoretical curves were generated using nonlinear regression curve-fitting analysis of either sigmoidal concentration-response or sigmoidal concentration-response (variable slope), and the IC50 values with the best-fit curve determined by GraphPad Prism were reported.
On the technique in general: Calcium assays in cells follow changes in intracellular calcium, usually with a dye or a luminescent sensor.

Read-outs that look alike come from different tables or passages of the source.

Chain of N-type calcium channel (α1B (Cav2.2), β3 and α2δ subunits) (Q00975 whole entry): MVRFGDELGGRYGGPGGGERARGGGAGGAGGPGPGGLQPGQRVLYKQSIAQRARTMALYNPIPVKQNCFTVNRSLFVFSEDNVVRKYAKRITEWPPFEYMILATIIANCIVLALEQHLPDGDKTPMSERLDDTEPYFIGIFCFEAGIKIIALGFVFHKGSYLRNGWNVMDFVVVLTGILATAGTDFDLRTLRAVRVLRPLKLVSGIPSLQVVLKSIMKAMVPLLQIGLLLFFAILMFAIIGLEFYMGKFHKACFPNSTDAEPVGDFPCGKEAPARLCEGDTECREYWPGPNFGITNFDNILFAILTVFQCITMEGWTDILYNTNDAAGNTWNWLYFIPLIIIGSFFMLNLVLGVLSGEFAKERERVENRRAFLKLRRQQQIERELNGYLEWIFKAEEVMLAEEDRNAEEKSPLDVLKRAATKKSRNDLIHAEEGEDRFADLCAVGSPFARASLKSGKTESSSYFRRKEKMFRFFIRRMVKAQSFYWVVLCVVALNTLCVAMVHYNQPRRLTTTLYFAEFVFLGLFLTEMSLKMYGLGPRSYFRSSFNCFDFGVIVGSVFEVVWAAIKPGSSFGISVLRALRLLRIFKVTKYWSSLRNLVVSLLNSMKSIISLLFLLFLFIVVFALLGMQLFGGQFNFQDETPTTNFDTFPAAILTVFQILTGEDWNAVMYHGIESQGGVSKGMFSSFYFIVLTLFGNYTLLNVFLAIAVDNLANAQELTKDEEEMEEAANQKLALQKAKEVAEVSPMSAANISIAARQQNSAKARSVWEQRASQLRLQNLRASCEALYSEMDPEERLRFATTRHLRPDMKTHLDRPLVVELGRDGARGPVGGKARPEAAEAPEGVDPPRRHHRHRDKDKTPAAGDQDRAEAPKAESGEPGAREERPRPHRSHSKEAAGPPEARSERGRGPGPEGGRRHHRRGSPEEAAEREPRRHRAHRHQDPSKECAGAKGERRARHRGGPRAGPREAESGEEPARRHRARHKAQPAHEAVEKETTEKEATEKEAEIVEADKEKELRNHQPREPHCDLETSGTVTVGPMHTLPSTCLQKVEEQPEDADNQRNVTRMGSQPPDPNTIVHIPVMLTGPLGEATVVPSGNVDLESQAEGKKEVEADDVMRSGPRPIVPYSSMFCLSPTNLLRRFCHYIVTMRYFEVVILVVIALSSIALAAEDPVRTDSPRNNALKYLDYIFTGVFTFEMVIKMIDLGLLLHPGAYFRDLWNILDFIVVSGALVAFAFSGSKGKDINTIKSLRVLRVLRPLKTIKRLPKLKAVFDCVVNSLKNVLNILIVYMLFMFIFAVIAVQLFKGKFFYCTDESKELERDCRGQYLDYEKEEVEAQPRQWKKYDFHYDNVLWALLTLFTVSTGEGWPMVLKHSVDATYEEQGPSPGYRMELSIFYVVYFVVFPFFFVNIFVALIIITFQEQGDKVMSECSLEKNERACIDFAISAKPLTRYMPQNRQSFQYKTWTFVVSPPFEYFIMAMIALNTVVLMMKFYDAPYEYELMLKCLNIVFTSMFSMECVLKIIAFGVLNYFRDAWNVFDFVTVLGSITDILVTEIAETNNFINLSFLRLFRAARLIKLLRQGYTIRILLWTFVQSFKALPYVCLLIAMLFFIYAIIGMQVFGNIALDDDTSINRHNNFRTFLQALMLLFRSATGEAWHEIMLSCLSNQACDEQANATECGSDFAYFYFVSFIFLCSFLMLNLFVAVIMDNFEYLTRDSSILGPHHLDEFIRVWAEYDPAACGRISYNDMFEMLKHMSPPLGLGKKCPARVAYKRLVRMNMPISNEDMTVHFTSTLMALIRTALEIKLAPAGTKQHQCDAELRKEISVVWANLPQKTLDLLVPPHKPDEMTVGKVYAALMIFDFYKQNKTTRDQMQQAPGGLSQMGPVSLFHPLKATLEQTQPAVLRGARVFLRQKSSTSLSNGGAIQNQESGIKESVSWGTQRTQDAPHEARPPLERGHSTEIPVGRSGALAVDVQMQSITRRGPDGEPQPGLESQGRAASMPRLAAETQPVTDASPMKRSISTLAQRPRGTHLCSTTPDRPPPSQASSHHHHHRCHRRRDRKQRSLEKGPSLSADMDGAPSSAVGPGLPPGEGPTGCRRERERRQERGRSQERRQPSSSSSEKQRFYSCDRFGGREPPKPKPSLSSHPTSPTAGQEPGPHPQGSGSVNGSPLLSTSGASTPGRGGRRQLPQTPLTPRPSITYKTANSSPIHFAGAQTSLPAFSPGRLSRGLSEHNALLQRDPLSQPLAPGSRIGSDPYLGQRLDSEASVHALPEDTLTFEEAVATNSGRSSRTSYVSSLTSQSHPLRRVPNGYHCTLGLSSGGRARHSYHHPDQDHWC
Chain of N-type calcium channel (α1B (Cav2.2), β3 and α2δ subunits) (P54284 whole entry partner): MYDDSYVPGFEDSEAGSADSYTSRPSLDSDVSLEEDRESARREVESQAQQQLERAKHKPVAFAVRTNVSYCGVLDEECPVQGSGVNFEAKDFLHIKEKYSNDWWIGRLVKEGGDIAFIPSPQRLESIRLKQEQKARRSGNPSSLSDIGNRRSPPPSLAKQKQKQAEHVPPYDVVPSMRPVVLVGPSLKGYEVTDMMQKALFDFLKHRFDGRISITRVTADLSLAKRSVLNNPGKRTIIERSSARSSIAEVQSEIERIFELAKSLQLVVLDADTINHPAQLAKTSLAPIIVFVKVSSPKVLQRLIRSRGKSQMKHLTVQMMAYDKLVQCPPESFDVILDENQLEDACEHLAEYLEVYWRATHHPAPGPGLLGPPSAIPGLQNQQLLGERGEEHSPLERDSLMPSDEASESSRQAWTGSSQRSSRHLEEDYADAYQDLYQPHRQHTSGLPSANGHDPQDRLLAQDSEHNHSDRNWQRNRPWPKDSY
Chain of N-type calcium channel (α1B (Cav2.2), β3 and α2δ subunits) (P54289 25-946 partner limits assumed): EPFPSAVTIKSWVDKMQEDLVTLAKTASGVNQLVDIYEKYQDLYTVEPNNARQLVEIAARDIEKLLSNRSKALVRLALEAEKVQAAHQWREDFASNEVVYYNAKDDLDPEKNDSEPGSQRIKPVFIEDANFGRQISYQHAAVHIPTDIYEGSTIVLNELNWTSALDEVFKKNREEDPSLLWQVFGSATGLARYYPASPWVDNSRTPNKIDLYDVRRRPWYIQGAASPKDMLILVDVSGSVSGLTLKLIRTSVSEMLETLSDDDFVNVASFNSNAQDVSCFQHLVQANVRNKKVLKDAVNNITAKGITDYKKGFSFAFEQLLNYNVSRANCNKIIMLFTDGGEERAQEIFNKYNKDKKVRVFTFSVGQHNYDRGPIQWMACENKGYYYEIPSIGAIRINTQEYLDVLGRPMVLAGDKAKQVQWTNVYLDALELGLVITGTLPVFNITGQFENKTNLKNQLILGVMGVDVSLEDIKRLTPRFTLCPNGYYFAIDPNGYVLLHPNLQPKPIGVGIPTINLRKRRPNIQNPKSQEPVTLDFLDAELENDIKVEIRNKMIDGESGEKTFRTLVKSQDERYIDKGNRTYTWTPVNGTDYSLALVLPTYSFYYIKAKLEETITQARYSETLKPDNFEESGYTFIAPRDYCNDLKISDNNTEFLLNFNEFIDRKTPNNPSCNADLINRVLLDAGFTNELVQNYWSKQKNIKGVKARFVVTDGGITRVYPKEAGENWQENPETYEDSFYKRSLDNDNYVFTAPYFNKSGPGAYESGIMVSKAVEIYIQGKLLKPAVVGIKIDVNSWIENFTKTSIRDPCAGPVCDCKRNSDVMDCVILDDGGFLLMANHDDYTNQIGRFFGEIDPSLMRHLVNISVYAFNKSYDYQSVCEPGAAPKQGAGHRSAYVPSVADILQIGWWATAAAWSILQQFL
Chain of N-type calcium channel (α1B (Cav2.2), β3 and α2δ subunits) (P54289 947-1103 partner limits assumed): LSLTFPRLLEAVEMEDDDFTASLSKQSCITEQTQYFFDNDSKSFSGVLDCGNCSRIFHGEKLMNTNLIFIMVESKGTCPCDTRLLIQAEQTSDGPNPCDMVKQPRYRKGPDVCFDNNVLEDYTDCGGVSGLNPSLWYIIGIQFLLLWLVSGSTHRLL

On to `COc1ccccc1-n1nc2c(c1-c1ccc(Cl)cc1)C[C@H](OC(=O)C1CCOCC1)C2` [Compound 86, (5S)-3-(4-chlorophenyl)-2-(2-methoxyphenyl)-2,4,5,6-tetrahydrocyclopenta[c]pyrazol-5-yl tetrahydro-2H-pyran-4-carboxylate], for which the IC50 (as a rule, the concentration that gives 50% inhibition) turned out to be 82 nM. Further, the inhibition (usually the drop in the measured response relative to a control, in per cent) at 0.33 µM (0.33 μM) turned out to be 82%.
Take `COc1ccccc1-n1nc2c(c1-c1ccc(Cl)cc1)C[C@H](OCC1CCOCC1)C2` [Compound 87, (5S)-3-(4-chlorophenyl)-2-(2-methoxyphenyl)-5-(tetrahydro-2H-pyran-4-ylmethoxy)-2,4,5,6-tetrahydrocyclopenta[c]pyrazole]: the IC50 is 92 nM. Further, under “0.33 μM”, the inhibition at 0.33 µM came to 82%.
As to `COc1ccccc1-n1nc2c(c1-c1ccc(Cl)cc1)CC(C(C)C)C2` (centres unmarked) [Compound 92, 3-(4-chlorophenyl)-2-(2-methoxyphenyl)-5-(1-methylethyl)-2,4,5,6-tetrahydrocyclopenta[c]pyrazole], the inhibition at 0.33 µM was 43%.
With `CCOc1ccc(-c2c3c(nn2-c2ccccc2OC)CC2(C3)OCC(C)(C)CO2)cn1` [Compound 94, 3-(6-ethoxypyridin-3-yl)-2-(2-methoxyphenyl)-5′,5′-dimethyl-2,6-dihydro-4H-spiro[cyclopenta[c]pyrazole-5,2′-[1,3]dioxane]], the IC50 amounted to 60 nM. For the same molecule, the inhibition at 0.33 µM (0.33 μM) amounted to 81%.
Take `COc1ccccc1-n1nc2c(c1-c1ccc(C)nc1)CC1(C2)OCC(C)(C)CO1` [Compound 95, 2-(2-methoxyphenyl)-5′,5′-dimethyl-3-(6-methylpyridin-3-yl)-2,6-dihydro-4H-spiro[cyclopenta[c]pyrazole-5,2′-[1,3]dioxane]]: the IC50 was 110 nM. The inhibition at 0.33 µM (0.33 μM) amounted to 67%.
Regarding `COc1ccccc1-n1nc2c(c1-c1ccc(Cl)cc1)CC(C1CCCCC1)C2` (centres unmarked) [Compound 104, 3-(4-chlorophenyl)-5-cyclohexyl-2-(2-methoxyphenyl)-2,4,5,6-tetrahydrocyclopenta[c]pyrazole], the IC50 came out at 140 nM. For the same molecule, the inhibition at 0.33 µM (0.33 μM) is 61%.
As to `COc1ccccc1-n1nc2c(c1-c1ccc(C#N)cc1)CC(CC1CCCCC1)C2` (centres unmarked) [Compound 106, 4-[5-(cyclohexylmethyl)-2-(2-methoxyphenyl)-2,4,5,6-tetrahydrocyclopenta[c]pyrazol-3-yl]benzonitrile], the IC50 was found to be 270 nM. Moreover, the inhibition at 0.33 µM (0.33 μM) is 64%.
Take `COc1ccccc1-n1nc2c(c1-c1ccc(Cl)cc1)CC(N1CC(C)OC(C)C1)C2` (centres unmarked) [Compound 116, 3-(4-chlorophenyl)-5-(2,6-dimethylmorpholin-4-yl)-2-(2-methoxyphenyl)-2,4,5,6-tetrahydrocyclopenta[c]pyrazole]: the IC50 worked out at 48 nM. In addition, the inhibition at 0.33 µM (0.33 μM) worked out at 77%.
`COc1ccccc1-n1nc2c(c1-c1ccc(Cl)cc1)CC(N1CCC(C)CC1)C2` (centres unmarked) [Compound 117, 3-(4-chlorophenyl)-2-(2-methoxyphenyl)-5-(4-methylpiperidin-1-yl)-2,4,5,6-tetrahydrocyclopenta[c]pyrazole]: the IC50 amounted to 44 nM. In addition, the inhibition at 0.33 µM (0.33 μM) was 75%.
With `CCC1(CC)CCN(C2Cc3nn(-c4ccccc4OC)c(-c4ccc(Cl)cc4)c3C2)C1` (centres unmarked) [Compound 118, 3-(4-chlorophenyl)-5-(3,3-diethylpyrrolidin-1-yl)-2-(2-methoxyphenyl)-2,4,5,6-tetrahydrocyclopenta[c]pyrazole], the IC50 came out at 46 nM. Further, the inhibition at 0.33 µM (0.33 μM) was determined as 76%.
On to `COc1ccccc1-n1nc2c(c1-c1ccc(Cl)cc1)CC(N1CCC(C)(C)C1)C2` (centres unmarked) [Compound 119, 3-(4-chlorophenyl)-5-(3,3-dimethylpyrrolidin-1-yl)-2-(2-methoxyphenyl)-2,4,5,6-tetrahydrocyclopenta[c]pyrazole], for which the IC50 amounted to 84 nM. The inhibition at 0.33 µM (0.33 μM) stood at 76%.
As to `COc1ccccc1-n1nc2c(c1-c1ccc(Cl)s1)CC1(C2)OCC(C)(C)CO1` [Compound 120, 3-(5-chlorothiophen-2-yl)-2-(2-methoxyphenyl)-5′,5′-dimethyl-2,6-dihydro-4H-spiro[cyclopenta[c]pyrazole-5,2′-[1,3]dioxane]], the IC50 worked out at 91 nM. Also, the inhibition at 0.33 µM (0.33 μM) was 78%.
Consider `COc1ccccc1-n1nc2c(c1-c1ccc(Cl)s1)CC1(C2)OC(C)(C)C(C)(C)O1` [Compound 121, 3-(5-chlorothiophen-2-yl)-2-(2-methoxyphenyl)-4′,4′,5′,5′-tetramethyl-2,6-dihydro-4H-spiro[cyclopenta[c]pyrazole-5,2′-[1,3]dioxolane]], for which the IC50 is 30 nM. Also, for the setting “0.33 μM”, the inhibition at 0.33 µM is 86%.
In the case of `COc1ccccc1-n1nc2c(c1-c1ccc(Cl)cc1)CC(N1CCCC1)C2` (centres unmarked) [Compound 122, 3-(4-chlorophenyl)-2-(2-methoxyphenyl)-5-pyrrolidin-1-yl-2,4,5,6-tetrahydrocyclopenta[c]pyrazole], where the note is “0.33 μM”, the inhibition at 0.33 µM came out at 33%.
On to `COC(=O)c1cn([C@@H]2Cc3nn(-c4ccccc4OC)c(-c4ccc(C#N)cc4)c3C2)nn1` [Compound 125, methyl 1-[(5S)-3-(4-cyanophenyl)-2-(2-methoxyphenyl)-2,4,5,6-tetrahydrocyclopenta[c]pyrazol-5-yl]-1H-1,2,3-triazole-4-carboxylate], for which the half-maximal inhibitory concentration (IC50) came to 81 nM. Also, the inhibition at 0.33 µM (0.33 μM) worked out at 70%.
As to `COc1ccccc1-n1nc2c(c1-c1ccc(C#N)cc1)C[C@H](n1cc(C(C)(C)O)nn1)C2` [Compound 126, 4-[(5S)-5-[4-(1-hydroxy-1-methylethyl)-1H-1,2,3-triazol-1-yl]-2-(2-methoxyphenyl)-2,4,5,6-tetrahydrocyclopenta[c]pyrazol-3-yl]benzonitrile], the inhibition at 0.33 µM (0.33 μM) was found to be 33%.
Take `COc1ccccc1-n1nc2c(c1-c1ccc(C#N)cc1)C[C@H](n1cc(COC(C)=O)nn1)C2` [Compound 128, {1-[(5S)-3-(4-cyanophenyl)-2-(2-methoxyphenyl)-2,4,5,6-tetrahydrocyclopenta[c]pyrazol-5-yl]-1H-1,2,3-triazol-4-yl}methyl acetate]: the IC50 was 170 nM. Further, the inhibition at 0.33 µM (0.33 μM) came out at 59%.
For `COCc1cn([C@@H]2Cc3nn(-c4ccccc4OC)c(-c4ccc(C#N)cc4)c3C2)nn1` [Compound 129, 4-[(5S)-5-[4-(methoxymethyl)-1H-1,2,3-triazol-1-yl]-2-(2-methoxyphenyl)-2,4,5,6-tetrahydrocyclopenta[c]pyrazol-3-yl]benzonitrile], for the setting “0.33 μM”, the inhibition at 0.33 µM stood at 47%.
Consider `COc1ccccc1-n1nc2c(c1-c1ccc(C#N)cc1)C[C@H](n1cnc(C)c1C)C2` [Compound 131, 4-[(5S)-5-(4,5-dimethyl-1H-imidazol-1-yl)-2-(2-methoxyphenyl)-2,4,5,6-tetrahydrocyclopenta[c]pyrazol-3-yl]benzonitrile], for which the IC50 was determined as 105 nM. In addition, the inhibition at 0.33 µM (0.33 μM) stood at 67%.
Regarding `COc1ccccc1-n1nc2c(c1-c1ccc(C#N)cc1)C[C@H](n1c(C)nc(C)c1C)C2` [Compound 132, 4-[(5S)-2-(2-methoxyphenyl)-5-(2,4,5-trimethyl-1H-imidazol-1-yl)-2,4,5,6-tetrahydrocyclopenta[c]pyrazol-3-yl]benzonitrile], the inhibition at 0.33 µM (0.33 μM) was found to be 29%.
As for `CCc1nc(C)c(C)n1[C@@H]1Cc2nn(-c3ccccc3OC)c(-c3ccc(C#N)cc3)c2C1` [Compound 133, 4-[(5S)-5-(2-ethyl-4,5-dimethyl-1H-imidazol-1-yl)-2-(2-methoxyphenyl)-2,4,5,6-tetrahydrocyclopenta[c]pyrazol-3-yl]benzonitrile], the inhibition at 0.33 µM (0.33 μM) turned out to be 35%.
As to `CCc1nccn1[C@@H]1Cc2nn(-c3ccccc3OC)c(-c3ccc(C#N)cc3)c2C1` [Compound 134, 4-[(5S)-5-(2-ethyl-1H-imidazol-1-yl)-2-(2-methoxyphenyl)-2,4,5,6-tetrahydrocyclopenta[c]pyrazol-3-yl]benzonitrile], the IC50 was 200 nM. Moreover, the inhibition at 0.33 µM (0.33 μM) worked out at 50%.
On to `COc1ccccc1-n1nc2c(c1-c1ccc(C#N)cc1)C[C@H](n1ccnc1C)C2` [Compound 135, 4-[(5S)-2-(2-methoxyphenyl)-5-(2-methyl-1H-imidazol-1-yl)-2,4,5,6-tetrahydrocyclopenta[c]pyrazol-3-yl]benzonitrile], for which, under “0.33 μM”, the inhibition at 0.33 µM turned out to be 44%.
Turning to `CCc1nnn([C@@H]2Cc3nn(-c4ccccc4OC)c(-c4ccc(C#N)cc4)c3C2)c1CC` [Compound 136, 4-[(5S)-5-(4,5-diethyl-1H-1,2,3-triazol-1-yl)-2-(2-methoxyphenyl)-2,4,5,6-tetrahydrocyclopenta[c]pyrazol-3-yl]benzonitrile], the IC50 stood at 16 nM. The inhibition at 0.33 µM (0.33 μM) worked out at 89%.

For the origin of these results see US8853418B2, “Cyclopentylpyrazoles as N-type calcium channel blockers” (Janssen Pharmaceutica NV, priority 2012, dated 2014).
